Experimental data reported in patent US9302085B2, “Methods and compositions for facilitating arterial access” (The Regents of the University of California, priority 2009, dated 2016).
Entries after “also recorded” stand apart in the source; their conditions may differ.

Tested on: radial artery
Experiment: Radial artery diameter measured with ultrasound after topical application to the wrist
Format: in vivo, human
Conditions: for effect on the vasodilatory action of nitroglycerin: adjacent skin sites
Protocol: A dose escalation study of topical nitroglycerin was performed. Twenty healthy volunteers were selected based on the following inclusion criteria: willing and able to give written informed consent and comply with study requirements; and able to speak English. In addition, the subjects were selected based on the following exclusion criteria: presence or history of liver, cardiovascular, rheumatologic, cancer or renal disease; current treatment with any vasodilator therapy; systolic blood pressure of less than 90 mmHg; history of radial artery catheterization within the previous year; absence of radial artery blood flow in one or both arms; pregnancy; and active infection.
Each of the twenty selected subjects received either 15 mg or 30 mg of nitroglycerin (Nitro-Bid 2% ointment, 1 or 2 inches, E Fougera & Co, NY) applied to one wrist and a placebo (sorbolene cream) applied to the other wrist. Applications were performed as single-blind (subject) experiments. Radial artery diameter was measured with ultrasound before application of the topical compositions and at time intervals after application of the topical compositions. The subjects were tested again at a later date, where they received the alternate dose of nitroglycerin on one wrist and the placebo on the other wrist.
The same subjects received topical applications of nitroglycerin (30 mg) with either 20 mg or 40 mg of lidocaine topical cream (LMX 4%, Ferndale, Mich.). The nitroglycerin and lidocaine were applied at adjacent skin sites on the wrist.

CCN(CC)CC(=O)Nc1c(C)cccc1C [lidocaine]
effect on the vasodilatory action of nitroglycerin (20 mg lidocaine topical cream with 30 mg nitroglycerin, FIG. 2): no detectable effect | effect on the vasodilatory action of nitroglycerin (40 mg lidocaine topical cream with 30 mg nitroglycerin, FIG. 3): did not prevent the vasodilation; also recorded: no detectable effect | effect on arterial diameter (lidocaine alone, topical, FIG. 3): no appreciable effect

O=[N+]([O-])OCC(CO[N+](=O)[O-])O[N+](=O)[O-] [nitroglycerin]
increase in radial artery diameter compared to the placebo (15 mg nitroglycerin topical on one wrist, healthy volunteers, FIG. 1): did not significantly increase | increase in radial artery diameter (30 mg nitroglycerin topical on one wrist, healthy volunteers, FIG. 1): approximately 25% | duration of the increase in radial artery diameter (30 mg nitroglycerin topical, 2-hour application): maintained during the 2-hour application | vasodilation (radial artery diameter versus time) (30 mg nitroglycerin topical, FIG. 1): significant vasodilation | diameter of the radial artery in the contralateral wrist (topical nitroglycerin on the other wrist): did not affect
